Measurements taken from patent publication US20070077283A1, “METHOD OF ENHANCING TRANSMUCOSAL DELIVERY OF THERAPEUTIC COMPOUNDS” (Nastech Pharmaceutical Company Inc., priority 2005, published 2007).

Key:
[1] = test system: human-derived tracheal/bronchial epithelial cells (EpiAirway Tissue Model); assay: Transepithelial electrical resistance (TER) of an epithelial cell monolayer; type: cell-based; settings: for activity at 1000 µM: Homo sapiens, Epithelial cell, 1 h, read-out: Mean % of Original TER Value
Method: Inserts are feed for each day of recovery. TER measurements were accomplished using the Endohm-12 Tissue Resistance Measurement Chamber connected to the EVOM Epithelial Voltohmmeter (World Precision Instruments, Sarasota, Fla.) with the electrode leads. The electrodes and a tissue culture blank insert were equilibrated for at least 20 minutes in MatTek medium with the power off prior to checking calibration. The background resistance was measured with 1.5 ml media in the Endohm tissue chamber and 300 μl media in the blank insert. The top electrode was adjusted so that it was close to, but not making contact with, the top surface of the insert membrane. Background resistance of the blank insert was about 5-20 ohms. […] TER values are a function of the surface area of the tissue. […] By this method of calculation, TER will be expressed as both Ohms*cm2 and percent original TER value. […] Several different lipid types (see Table 1) were screened to select for lipids that are capable of enhancing the permeation of a biological agent across an epithelial cell monolayer. […] A reduction in TER correlates with the ability to enhance the permeation of a molecule and biological agent across an epithelia.

[2] = test system: human-derived tracheal/bronchial epithelial cells (EpiAirway Tissue Model); assay: in vitro
Method: Normal, human-derived tracheal/bronchial epithelial cells will serve as the model cell system for assessing the lipids listed in Table 1. The cells are supplied by MatTek Corp. (Ashland, Mass.) as the EpiAirway™ Tissue Model. The cells are provided as a confluent monolayer on a Millipore Milicell-CM cell culture insert with a pore size of 0.4 μM, inner diameter of 0.8 cm and surface area of 0.6 cm^2 and comprised of transparent hydrophilic Teflon (PTFE). Upon receipt, the membranes are cultured in 1 ml basal media (phenol red-free and hydrocortisone-free Dulbecco's Modified Eagle's Media (DMEM) at 37° C./5% CO2 for 24-48 hours before use. Inserts are feed for each day of recovery.
The amount of cell death was assayed by measuring the loss of lactate dehydrogenase (LDH) from the cells using a CytoTox 96 Cytotoxicity Assay Kit (Promega Corp., Madison, Wis.). A treatment of 1% Octylphenolpoly(ethyleneglycolether)x (Triton X-100™) diluted in PBS was used as a lysis control. One percent Triton X-100™ mediated cell lysis was normalized to 100%. For basal-lateral LDH levels, triplicates of 50 μl of the basal media were loaded into a 96-well assay plate. For apical LDH levels, 150 μl of Epi-Cm was added to the apical side of each chamber and mixed by pipeting. One hundred and fifty microliters was then removed and diluted 2-fold prior to performing the LDH assay. All apical LDH assay were performed in triplicate and with 50 μl of the diluted test solution. Fresh, cell-free culture medium will be used as a blank. Total LDH levels were determined by lysing cells in a final concentration of 0.9% Triton-X100™. Fifty microliters of substrate solution was added to each well and the plates incubated for 30 minutes at room temperature in the dark. Following incubation, 50 μl of stop solution was added to each well and the plates read on an optical density plate reader at […]. Cytotoxicity was expressed as a percentage calculated by subtracting the average absorbance of the PBS control wells as the endogenously released LDH level and expressing that value relative to the average Triton-X100 control, which represents total LDH content. [formula] Osmolality
For the instant application, phosphate buffered saline (PBS) served as a negative control for both the TER assay and LDH (cytotoxicity) assay. […] TER measurements and LDH levels were taken immediately after a one hour treatment of the cultured cells with each lipid, unless specified otherwrise.
TER reduction was expressed as the percent decrease in TER value from time zero to one hour post-treatment. Thus, greater percent reduction in TER represents less electrical resistance across the epithelial cell monolayer and consequently greater epithelial cell permeation. Cytotoxicity (LDH levels) for each lipid was expressed as a percent of the LDH levels measured after Triton-X100 treatment of the cells. Triton-X100™ LDH levels were normalized to 100%.

[3] = test system: human-derived tracheal/bronchial epithelial cells (EpiAirway Tissue Model); assay: Cell viability (MTT assay); type: cell-based; settings: compared with PBS negative control (Example 5)
Method: Cell viability will be assessed using the MTT assay (MTT-100, MatTek kit). This kit measures the uptake and transformation of tetrazolium salt to formazan dye. Thawed and diluted MTT concentrate is prepared 1 hour prior to the end of the dosing period with the lipid by mixing 2 mL of MTT concentrate with 8 mL of MTT diluent. Each cell culture insert is washed twice with PBS containing Ca^+2 and Mg^+2 and then transferred to a new 96-well transport plate containing 100 μL of the mixed MTT solution per well. This 96-well transport plate is then incubated for three hours at 37° C. and 5% CO2. After the three hour incubation, the MTT solution is removed and the cultures are transferred to a second 96-well feeder tray containing 250 μL MTT extractant solution per well. An additional 150 μL of MTT extractan solution was added to the surface of each culture well and the samples sat at room temperature in the dark for a minimum of two hours and maximum of 24 hours. The insert membrane was then pierced with a pipet tip and the solutions in the upper and lower wells were allowed to mix. Two hundred microliters of the mixed extracted solution along with extracted blanks (negative control) was transferred to a 96-well plate for measurement with a microplate reader. The optical density (OD) of the samples was measured at 570 nm with the background subtraction at 650 nm on a plate reader. Cell viability was expressed as a percentage and calculated by dividing the OD readings for treated inserts by the OD readings for the PBS treated inserts and multiplying by 100. For the purposes of this assay, it was assumed that PBS had no effect on cell viability and therefore represented 100% cell viability.

[4] = test system: human-derived tracheal/bronchial epithelial cells (EpiAirway Tissue Model); assay: FITC-Dextran permeation assay across epithelial cell monolayer; type: cell-based; settings: for Mean % FD3 Permeation: FITC-dextran 3000 (Table 4); for permeation of FD3 relative to negative controls: text summary of Table 4
Method: Each tissue insert was placed in an individual well containing 1 ml of MatTek basal media. On the apical surface of the inserts, 20 μl of test formulation was applied according to study design, and the samples were placed on a shaker (˜100 rpm) for 1.5 hours at 37° C. FITC-labeled dextran solution was added to inserts apically and a fluorescence measurement was taken from the basolateral media after the incubation period. Two hundred microliters of the basal media for each test formulation was transferred to a dark-wall fluorescent reading plate. Each test formulation was tested in triplicate. Fluorescent intensity was measured at 470 nM with the microplate fluorescence reader FLx800 (Bio-Tek Instruments, Inc., Winooski, Vt.). A FITC labeled dextran with a molecular weight of 3 kDA, 10 kDA, 20 kDA, 40 kDA, 70 kDA and/or 500 kDA was used to assess the ability of individual lipids to deliver a model protein across an epithelia.
Permeation is expressed as percent permeation and was calculated as follows: [formula] [formula] Terms
PBS and 0.3% Triton-X100™ served as […]. […] FD permeation was presented as the percent of FD that crossed from the apical side of the epithelial cell monolayer to the basolateral cell surface.

[5] = lipid 1000 μM, lower value = greater TER reduction (Table 4)

Row | Compound | activity at 1000 µM [1, 5] [%] | Mean % Relative Cytotoxic Effect (LDH) ([2]; human, 1 h, 1000 μM) [%] | Mean % FD3 Permeation ([4]; lipid 1000 μM) [%] | permeation of FD3 relative to negative controls [4] | Mean % Relative Cytotoxic Effect (LDH) ([2]; lipid 1000 μM (Table 4)) [%] | other results
1 | CCCCCCCCCCCCCCCC(=O)OC[C@H](COP(=O)([O-])OCC[N+](C)(C)C)OC(=O)CCCCCCCC=O [16:0-09:0(ALDO)PC, 1-Palmitoyl-2-(9′-oxo-Nonanoyl)-sn-Glycero-3-Phosphocholine] | – | – | – | – | – | Mean TER Reduction 1 hr. Post-treatment ([1]; lipid 1000 μM, percent decrease in TER from time zero): 81%; LDH levels ([2]; human, 1 h): below 30%; Cytotoxic Effect (LDH) 1 hr. Post-treatments ([2]; human, 1 h, 1000 μM): 10%; MTT levels (cell viability) [3]: MTT levels comparable to that of the PBS negative control; % FITC-Dextran Permeation FD3 ([4]; lipid 1000 μM (Table 5)): 0%
2 | CCCCCCCCCCCCCCCC(=O)OC[C@H](COP(=O)([O-])OCC[N+](C)(C)C)OC(=O)CCCCCCCC(=O)O [16:0-09:0(COOH)PC, 1-Palmitoyl-2-Azelaoyl-sn-Glycero-3-Phosphocholine] | – | – | – | – | – | Mean TER Reduction 1 hr. Post-treatment ([1]; lipid 500 μM): 92%; LDH levels ([2]; human, 1 h): below 30%; Cytotoxic Effect (LDH) 1 hr. Post-treatments ([2]; human, 1 h, 500 μM): 9%; MTT levels (cell viability) [3]: MTT levels comparable to that of the PBS negative control; % FITC-Dextran Permeation FD3 ([4]; lipid 500 μM (Table 5)): 3%
3 | CCCCCCCCCCCCCCCCCCOC[C@H](COP(=O)([O-])OCC[N+](C)(C)C)OC(=O)CCC [C18-04:0 PC, 1-O-Octadecyl-2-Butyroyl-sn-Glycero-3-Phosphocholine] | 85 | −3 | 0 | – | – | –
4 | CCCCCCCCCCCCCCCCOC[C@H](COP(=O)([O-])OCC[N+](C)(C)C)OC(=O)CCC [C16-04:0 PC, 1-O-Hexadecyl-2-Butyroyl-sn-Glycero-3-Phosphocholine] | 0 | 22 | 7 | enhanced the permeation of FD3 above that of the negative controls | – | –
5 | CCCCCCCC/C=C\CCCCCCCC(=O)O[C@H](COCCCCCCCCCCCCCCCC)COP(=O)([O-])OCC[N+](C)(C)C [C16-18:1 PC, 1-O-Hexadecyl-2-Oleoyl-sn-Glycero-3-Phosphocholine] | 86 | −2 | 0 | – | – | –
6 | CCCCCCCCCCCCCCCC(=O)OC[C@H](COP(=O)([O-])OCC[N+](C)(C)C)OC(C)=O [16:0-02:0 PC, 1-Palmitoyl-2-Acetoyl-sn-Glycero-3-Phosphocholine] | 25 | – | 8 | – | 23 | –
7 | CCCCCCCCCCCCCCCCOC[C@@H](O)COP(=O)([O-])OCC[N+](C)(C)C [C16 Lyso-PAF, 1-O-Hexadecyl-2-Hydroxy-sn-Glycero-3-Phosphocholine] | 14 | – | 6 | enhanced the permeation of FD3 above that of the negative controls | 26 | % FITC-Dextran Permeation FD10 ([4]; lipid 1000 μM): 6%; % FITC-Dextran Permeation FD40 ([4]; lipid 1000 μM): 2%; % FITC-Dextran Permeation FD3 ([4]; lipid 1000 μM (Table 5)): 8%
8 | CCCCC/C=C\C/C=C\C/C=C\C/C=C\CCCC(=O)O[C@H](COCCCCCCCCCCCCCCCC)COP(=O)([O-])OCC[N+](C)(C)C [C16-20:4 PC, 1-O-Hexadecyl-2-Arachidonoyl-sn-Glycero-3-Phosphocholine] | 96 | 0 | 0 | – | – | –
9 | CCCCCCCCCCCCCCCCOC[C@H](COP(=O)([O-])OCC[N+](C)(C)C)OC(=O)NC [C-PAF, 1-O-Hexadecyl-2-N-Methylcarbamyl-sn-Glycero-3-Phosphocholine] | – | – | 12 | enhanced the permeation of FD3 above that of the negative controls | 15 | Mean % of Original TER Value ([1]; lipid 500 μM (Table 4)): 10%; Mean % of Original TER Value [1, 5]: 2%; Mean % Relative Cytotoxic Effect (LDH) ([2]; lipid 500 μM (Table 4)): 11%; Mean % FD3 Permeation ([4]; lipid 500 μM): 11%
